Data published in patent publication US11497212B2, “Substituted thiophenyl uracils, salts thereof and the use thereof as herbicidal agents” (Syngenta Crop Protection AG, priority 2017, dated 2022).

Key:
Format in all cases: in vivo
Abutilon theophrasti [1] = experiment: Herbicidal action pre-emergence (greenhouse pot trial); settings: scored after about 3 weeks
Outline: (§1)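 Efficacy (%) was estimated visually about 3 wk post-application by comparing treated pots with untreated controls, where 0% denotes plants resembling controls and 100% denotes dead plants. Dose was 320 g/ha or less.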

Setaria viridis [2] = experiment: as above; settings: application rate 320 g/ha, scored after about 3 weeks
Outline: as §1

Cyperus esculentus = experiment: as above; settings: application rate 320 g/ha
Outline: as §1

Hordeum murinum [3] = experiment: as above; settings: application rate 320 g/ha
Outline: as §1

Amaranthus retroflexus [4] = experiment: as above; settings: scored after about 3 weeks
Outline: as §1

Stellaria media [5] = experiment: as above; settings: application rate 320 g/ha, scored after about 3 weeks
Outline: as §1

Avena fatua [6] = experiment: as above; settings: application rate 320 g/ha
Outline: as §1

Veronica persica [7] = experiment: as above; settings: application rate 320 g/ha
Outline: as §1

Pharbitis purpurea [8] = experiment: as above; settings: application rate 320 g/ha
Outline: as §1

Viola tricolor [9] = experiment: as above; settings: application rate 320 g/ha, scored after about 3 weeks
Outline: as §1

Lolium rigidum [10] = experiment: as above
Outline: as §1

Matricaria inodora [11] = experiment: as above; settings: scored after about 3 weeks
Outline: as §1

Alopecurus myosuroides [12] = experiment: as above; settings: application rate 320 g/ha, scored after about 3 weeks
Outline: as §1

Echinochloa crus-galli [13] = experiment: as above; settings: application rate 320 g/ha, scored after about 3 weeks
Outline: as §1

Abutilon theophrasti [14] = experiment: Herbicidal action post-emergence (greenhouse pot trial); settings: scored visually after about 3 weeks vs untreated controls
Outline: (§2)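 One-leaf-stage seedlings, 2–3 weeks old, are treated on their green parts with an aqueous emulsion or suspension of the test compound (WP or EC, 0.5% additive) using 600 L/ha of water at up to 80 g/ha. About 3 weeks on, percent kill is estimated visually versus untreated plants.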

Setaria viridis [15] = experiment: as above; settings: scored visually after about 3 weeks vs untreated controls
Outline: as §2

Hordeum murinum [16] = experiment: as above; settings: application rate 80 g/ha, scored visually after about 3 weeks vs untreated controls
Outline: as §2

Polygonum convolvulus = experiment: as above; settings: scored visually after about 3 weeks vs untreated controls
Outline: as §2

Amaranthus retroflexus [17] = experiment: as above; settings: scored visually after about 3 weeks vs untreated controls
Outline: as §2

Stellaria media [18] = experiment: as above; settings: scored visually after about 3 weeks vs untreated controls
Outline: as §2

Avena fatua [19] = experiment: as above; settings: application rate 80 g/ha, scored visually after about 3 weeks vs untreated controls
Outline: as §2

Veronica persica [20] = experiment: as above
Outline: as §2

Pharbitis purpurea [21] = experiment: as above
Outline: as §2

Viola tricolor [22] = experiment: as above
Outline: as §2

Lolium rigidum [23] = experiment: as above; settings: scored visually after about 3 weeks vs untreated controls
Outline: as §2

Matricaria inodora [24] = experiment: as above; settings: scored visually after about 3 weeks vs untreated controls
Outline: as §2

Echinochloa crus-galli [25] = experiment: as above; settings: scored visually after about 3 weeks vs untreated controls
Outline: as §2

Glycine max [26] = experiment: Crop compatibility pre-emergence (greenhouse pot trial); settings: application rate 80 g/ha, effect vs untreated controls
Outline: (§3)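 Compounds, formulated as WP or EC plus 0.5% additive, applied to covering soil after sowing at a water rate of 600 L/ha. After roughly 3 weeks under greenhouse conditions, visual % injury to crops rated against untreated plants, 0% meaning like control.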

Zea mays [27] = experiment: as above; settings: effect vs untreated controls
Outline: as §3

Glycine max [28] = experiment: Crop compatibility post-emergence (greenhouse pot trial); settings: application rate 20 g/ha
Outline: (§4)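 Visual % rating about 3 weeks post-treatment against untreated plants (100% dead, 0% unaffected). Post-emergence spray of aqueous WP/EC preparations with 0.5% additive at 600 L/ha water, applied at one-leaf stage to greenhouse pot-grown crops in sandy loam.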

Triticum aestivum = experiment: as above; settings: application rate 20 g/ha
Outline: as §4

Zea mays [29] = experiment: as above
Outline: as §4

Oryza sativa [30] = experiment: Crop compatibility pre-emergence (greenhouse pot trial); settings: effect vs untreated controls
Outline: as §3

Oryza sativa [31] = experiment: Crop compatibility post-emergence (greenhouse pot trial)
Outline: as §4

Digitaria sanguinalis = experiment: Herbicidal action post-emergence (greenhouse pot trial); settings: application rate 20 g/ha
Outline: as §2

Alopecurus myosuroides [32] = experiment: as above; settings: application rate 80 g/ha, scored visually after about 3 weeks vs untreated controls
Outline: as §2

CC(Sc1cc(-n2c(=O)cc(C(F)(F)F)n(C)c2=O)c(F)cc1Cl)C(=O)OCC1CCOC1 (centres unmarked) [I.1-72]
90%: Hordeum murinum (Efficacy in %) (Hordeum murinum [3]) | Alopecurus myosuroides (Efficacy in %) (Alopecurus myosuroides [12])
100%: Abutilon theophrasti (Efficacy in %) (Abutilon theophrasti [1]; application rate 320 g/ha) | Setaria viridis (Efficacy in %) (Setaria viridis [2]) | Amaranthus retroflexus (Efficacy in %) (Amaranthus retroflexus [4]; application rate 320 g/ha) | Stellaria media (Efficacy in %) (Stellaria media [5]) | Avena fatua (Efficacy in %) (Avena fatua [6]) | Veronica persica (Efficacy in %) (Veronica persica [7]) | Pharbitis purpurea (Efficacy in %) (Pharbitis purpurea [8]) | Viola tricolor (Efficacy in %) (Viola tricolor [9]) | Lolium rigidum (Efficacy in %) (Lolium rigidum [10]; application rate 320 g/ha) | Matricaria inodora (Efficacy in %) (Matricaria inodora [11]; application rate 320 g/ha) | Echinochloa crus-galli (Efficacy in %) (Echinochloa crus-galli [13]) | Abutilon theophrasti (Efficacy in %) (Abutilon theophrasti [14]; application rate 80 g/ha) | Setaria viridis (Efficacy in %) (Setaria viridis [15]; application rate 80 g/ha) | Polygonum convolvulus (Efficacy in %) (Polygonum convolvulus; application rate 80 g/ha) | Amaranthus retroflexus (Efficacy in %) (Amaranthus retroflexus [17]; application rate 80 g/ha) | Stellaria media (Efficacy in %) (Stellaria media [18]; application rate 80 g/ha) | Veronica persica (Efficacy in %) (Veronica persica [20]; application rate 80 g/ha) | Pharbitis purpurea (Efficacy in %) (Pharbitis purpurea [21]; application rate 80 g/ha) | Viola tricolor (Efficacy in %) (Viola tricolor [22]; application rate 80 g/ha) | Lolium rigidum (Efficacy in %) (Lolium rigidum [23]; application rate 80 g/ha) | Matricaria inodora (Efficacy in %) (Matricaria inodora [24]; application rate 80 g/ha) | Echinochloa crus-galli (Efficacy in %) (Echinochloa crus-galli [25]; application rate 80 g/ha)
20%: Glycine max (Efficacy in %) (Glycine max [26]) | Zea mays (Efficacy in %) (Zea mays [27]; application rate 80 g/ha) | Zea mays (Efficacy in %) (Zea mays [29]; application rate 20 g/ha)
0%: Triticum aestivum (Efficacy in %) (Triticum aestivum)
10%: Glycine max (Efficacy in %) (Glycine max [28])
80%: Cyperus esculentus (Efficacy in %) (Cyperus esculentus) | Hordeum murinum (Efficacy in %) (Hordeum murinum [16]) | Avena fatua (Efficacy in %) (Avena fatua [19])

CC(Sc1cc(-n2c(=O)cc(C(F)(F)F)n(C)c2=O)c(F)cc1Cl)C(=O)OCC1CCCOC1 (centres unmarked) [I.1-92]
0%: Zea mays (Efficacy in %) (Zea mays [27]; application rate 80 g/ha) | Oryza sativa (Efficacy in %) (Oryza sativa [31]; application rate 20 g/ha)
80%: Matricaria inodora (Efficacy in %) (Matricaria inodora [24]; application rate 20 g/ha)
10%: Oryza sativa (Efficacy in %) (Oryza sativa [30]; application rate 80 g/ha) | Triticum aestivum (Efficacy in %) (Triticum aestivum)
20%: Zea mays (Efficacy in %) (Zea mays [29]; application rate 20 g/ha)
100%: Abutilon theophrasti (Efficacy in %) (Abutilon theophrasti [1]; application rate 80 g/ha) | Amaranthus retroflexus (Efficacy in %) (Amaranthus retroflexus [4]; application rate 80 g/ha) | Matricaria inodora (Efficacy in %) (Matricaria inodora [11]; application rate 80 g/ha) | Abutilon theophrasti (Efficacy in %) (Abutilon theophrasti [14]; application rate 20 g/ha) | Setaria viridis (Efficacy in %) (Setaria viridis [15]; application rate 20 g/ha) | Polygonum convolvulus (Efficacy in %) (Polygonum convolvulus; application rate 20 g/ha) | Amaranthus retroflexus (Efficacy in %) (Amaranthus retroflexus [17]; application rate 20 g/ha) | Veronica persica (Efficacy in %) (Veronica persica [20]; application rate 20 g/ha) | Pharbitis purpurea (Efficacy in %) (Pharbitis purpurea [21]; application rate 20 g/ha) | Viola tricolor (Efficacy in %) (Viola tricolor [22]; application rate 20 g/ha) | Echinochloa crus-galli (Efficacy in %) (Echinochloa crus-galli [25]; application rate 20 g/ha)

CC(Sc1cc(-n2c(=O)cc(C(F)(F)F)n(C)c2=O)c(F)cc1Cl)C(=O)OC1CCCOC1 (centres unmarked) [I.1-126]
0%: Zea mays (Efficacy in %) (Zea mays [27]; application rate 80 g/ha) | Oryza sativa (Efficacy in %) (Oryza sativa [31]; application rate 20 g/ha)
20%: Oryza sativa (Efficacy in %) (Oryza sativa [30]; application rate 80 g/ha) | Triticum aestivum (Efficacy in %) (Triticum aestivum) | Zea mays (Efficacy in %) (Zea mays [29]; application rate 20 g/ha)
10%: Glycine max (Efficacy in %) (Glycine max [26])
90%: Matricaria inodora (Efficacy in %) (Matricaria inodora [24]; application rate 20 g/ha)
80%: Digitaria sanguinalis (Efficacy in %) (Digitaria sanguinalis)
100%: Abutilon theophrasti (Efficacy in %) (Abutilon theophrasti [1]; application rate 80 g/ha) | Amaranthus retroflexus (Efficacy in %) (Amaranthus retroflexus [4]; application rate 80 g/ha) | Matricaria inodora (Efficacy in %) (Matricaria inodora [11]; application rate 80 g/ha) | Abutilon theophrasti (Efficacy in %) (Abutilon theophrasti [14]; application rate 20 g/ha) | Setaria viridis (Efficacy in %) (Setaria viridis [15]; application rate 20 g/ha) | Amaranthus retroflexus (Efficacy in %) (Amaranthus retroflexus [17]; application rate 20 g/ha) | Stellaria media (Efficacy in %) (Stellaria media [18]; application rate 20 g/ha) | Veronica persica (Efficacy in %) (Veronica persica [20]; application rate 20 g/ha) | Pharbitis purpurea (Efficacy in %) (Pharbitis purpurea [21]; application rate 20 g/ha) | Viola tricolor (Efficacy in %) (Viola tricolor [22]; application rate 20 g/ha)

CSCCNC(=O)C(C)Sc1cc(-n2c(=O)cc(C(F)(F)F)n(C)c2=O)c(F)cc1Cl (centres unmarked) [I.1-181]
20%: Glycine max (Efficacy in %) (Glycine max [26]) | Glycine max (Efficacy in %) (Glycine max [28]) | Triticum aestivum (Efficacy in %) (Triticum aestivum) | Zea mays (Efficacy in %) (Zea mays [29]; application rate 80 g/ha)
90%: Hordeum murinum (Efficacy in %) (Hordeum murinum [3])
100%: Abutilon theophrasti (Efficacy in %) (Abutilon theophrasti [1]; application rate 320 g/ha) | Setaria viridis (Efficacy in %) (Setaria viridis [2]) | Amaranthus retroflexus (Efficacy in %) (Amaranthus retroflexus [4]; application rate 320 g/ha) | Stellaria media (Efficacy in %) (Stellaria media [5]) | Avena fatua (Efficacy in %) (Avena fatua [6]) | Veronica persica (Efficacy in %) (Veronica persica [7]) | Pharbitis purpurea (Efficacy in %) (Pharbitis purpurea [8]) | Viola tricolor (Efficacy in %) (Viola tricolor [9]) | Lolium rigidum (Efficacy in %) (Lolium rigidum [10]; application rate 80 g/ha) | Matricaria inodora (Efficacy in %) (Matricaria inodora [11]; application rate 320 g/ha) | Alopecurus myosuroides (Efficacy in %) (Alopecurus myosuroides [12]) | Echinochloa crus-galli (Efficacy in %) (Echinochloa crus-galli [13]) | Abutilon theophrasti (Efficacy in %) (Abutilon theophrasti [14]; application rate 20 g/ha) | Setaria viridis (Efficacy in %) (Setaria viridis [15]; application rate 20 g/ha) | Polygonum convolvulus (Efficacy in %) (Polygonum convolvulus; application rate 20 g/ha) | Amaranthus retroflexus (Efficacy in %) (Amaranthus retroflexus [17]; application rate 20 g/ha) | Stellaria media (Efficacy in %) (Stellaria media [18]; application rate 20 g/ha) | Veronica persica (Efficacy in %) (Veronica persica [20]; application rate 20 g/ha) | Viola tricolor (Efficacy in %) (Viola tricolor [22]; application rate 20 g/ha) | Matricaria inodora (Efficacy in %) (Matricaria inodora [24]; application rate 20 g/ha) | Echinochloa crus-galli (Efficacy in %) (Echinochloa crus-galli [25]; application rate 20 g/ha)
10%: Oryza sativa (Efficacy in %) (Oryza sativa [31]; application rate 80 g/ha)
80%: Lolium rigidum (Efficacy in %) (Lolium rigidum [23]; application rate 20 g/ha) | Alopecurus myosuroides (Efficacy in %) (Alopecurus myosuroides [32])
0%: Oryza sativa (Efficacy in %) (Oryza sativa [30]; application rate 20 g/ha) | Zea mays (Efficacy in %) (Zea mays [27]; application rate 20 g/ha)
